# Legend:
# [1] = test system: HEK 293, M468 and NCI-H226; assay: In vitro cytotoxicity by MTT assay, summary over all cell lines; assay type: cell-based; details: on all cell lines
# Protocol: The cancer cell line cultures of HEK 293 ([…]), BT474 (breast cancer cell line) and NCI-H226 (lung cancer) were obtained from Pasteur Institute of India, Coonoor, India, and were cultured in RPMI-1640 and 10 % heat-[…] New born calf serum with antibiotics [penicillin ([…]), streptomycin (100 μg/mL) and amphotericin B (25 μg/mL)]. The cells were maintained at 37 °C in a humidified atmosphere with 5 % CO2 and were subcultured twice a week.
# The monolayer cell culture (100 μL) was trypsinized, and the cell count was adjusted to […] using medium containing 10 % new born calf serum. To each well of the 96-well microtitre plate, the diluted cell suspension (approximately 10,000 cells) (0.1 mL) was added and kept for 24 h in incubator at 37 °C in 5 % CO2 atmosphere for cell monolayer formation. After 24 h, when a partial monolayer was formed at the bottom of the well, the supernatant was flicked off, the monolayer was washed once, and different drugs, i.e. synthesized compounds (100 μL), were added to the cells in microtitre plates. The plates were then incubated at 37 °C for 3 days in 5 % CO2 atmosphere, and microscopic examination was carried out and observations recorded every 24 h. After 72 h, the sample solution in the wells was flicked off; MTT dye ([…]) was added to each well; plates were gently shaken and incubated for 4 h at 37 °C in 5 % CO2 incubator. The supernatant was removed and propanol (50 μL) was added; the plates were gently shaken to solubilize the formed formazan. The absorbance was measured using a microplate reader at a wavelength of 490 nm (Edmondson et al., [1988]; Prasad et al., [2005]; Chiruvella et al., [2008]; Chang et al., [2007]).
# [2] = test system: BT474 (breast cancer cell line); assay: In vitro cytotoxicity by MTT assay, BT474; assay type: cell-based; details: 72 h
# How it was run: (§1)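 RPMI-1640, 10 % newborn calf serum; ~10,000 cells/well, 24 h attachment; compound 72 h, 37 °C, 5 % CO2; MTT 4 h; propanol; A490.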
# [3] = test system: NCI-H226 (lung cancer cell line); assay: In vitro cytotoxicity by MTT assay, NCI-H226; assay type: cell-based; details: 72 h
# How it was run: as §1
# [4] = In vitro cytotoxicity by MTT assay, NCI-H226; assay type: cell-based; details: human, NCI-H226 lung cancer cells, 0.015 μM, read-out: % Cytotoxicity (100 − % cell survival) of NCI-H226 cell line
# How it was run: as §1
# [5] = In vitro cytotoxicity by MTT assay, HEK 293; assay type: cell-based, human; details: human, HEK 293 cells, read-out: % cytotoxicity (100 − % cell survival) of HEK 293 cell line
# How it was run: as §1
# [6] = test system: root meristem cells of Allium cepa; assay: In vitro antimitotic activity and cytogenetic analysis, Allium cepa meristem root model; assay type: cell-based; details: compounds 1 mg/mL, PC (EMS) 2 × 10^−2 M
# Protocol: Small bulbs (1.5–2.0 cm in diameter) of the common onion, A. cepa (2n = 16), were purchased from vendor at a local market. Prior to initiating the test, the outer scales of the bulbs and the dry bottom plate were removed without destroying the root primordia. The roots of A. cepa were grown in distilled water in Erlenmeyer flasks (200 mL capacity) under laboratory conditions (dark 24 °C). For each synthesized compound sample, after reaching a length of 3 cm (±0.5 cm), a series of six bulbs were placed in distilled water (pH 7.3) for 48 h and then onion roots were treated with the synthesized compound at 1 mg/mL concentrations of each tested compound. The test tubes were kept in an incubator at 22 ± 1 °C, and the test samples were changed daily at the same time. Several of the newly formed root tips were then cut from each bulb and examined for any visible morphological abnormalities. The bulbs with satisfactory root lengths (2–2.5 cm) were used in the study, while those with exceptionally long or short roots were discarded (on average 2–3 bulbs). Therefore, individual sets of five bulbs were used for each extract sample.
# Distilled water (pH 7.3) was used as a negative control, and EMS (2 × 10^−2 M) used as a positive control mutagen (Fiskesjo, [1993], [1997]). After 24 h of exposure, several root tips were removed from the bulbs, fixed in 3:1 (v/v) ethanol (90 %)/glacial acetic acid (45 %) and stored overnight at 4 °C. The next day, they were placed in 70 % (v/v) aqueous alcohol and refrigerated until used. Allium roots were softened by digesting with HCl and rinsed the roots in water. After removing the water from the third rinse, the roots were covered with the orcein acetate stain. The roots were incubated in the stain for 12 min. During this time, the very tip of the root begins to turn red as the DNA stains the numerous small actively dividing cells at the tip. A root was transferred to the centre of a clean microscope slide, and a drop of water was added. Using a razor blade most of the unstained part of the root was cut off and discarded. The root tip was covered with a cover slip and then carefully pushed down on the cover slide with the wooden end of a dissecting probe. […] The root tip should spread out to a diameter about 0.5–1 cm. Five slides were prepared per bulb.
# The following parameters were used for the determination of cytotoxicity and genotoxicity: • (i) the mitotic index (MI) was calculated as the ratio between the number of mitotic cells and the total number of cells scored and expressed as percentage using following formula as per standard procedures. Mitoticindex=Numberofdividingcells/Totalnumberofcells×100 • (ii) Chromatin aberrations (stickiness, breaks and polar deviation) were used as end points for the determination of cytogenetic effects, and micronuclei (MNC) were scored in interphase cells per 1,000 cells (‰ MNC) (Freshney, [2000]). • (iii) The most frequent abnormalities are shown in microphotographs. After 72 h of exposure to the test samples, the root lengths were measured and used as an index of general toxicity. The results for mitotic index and root length are expressed as percentage of the negative and positive controls. Visible morphological modifications, such as changes in root consistency and colour as well as the presence of swelling (c-tumours), hooks or twists in the roots, were also observed.
# [7] = test system: HEK 293 (human epidermal kidney cell line); assay: In vitro cytotoxicity by MTT assay, HEK 293; assay type: cell-based; details: 72 h
# How it was run: as §1
molecule,measurement,setting,value
CC(=O)Nc1ccc(S(=O)(=O)Nc2nnc(S(=O)(=O)NC(=O)c3ccccc3N)s2)cc1 [Compound 6b],cytotoxic activity compared with all synthesized compounds,[1],moderate activity
same,cytotoxicity at 0.005 µM,"[2]; Homo sapiens, BT-474, 0.005 μM, read-out: % cytotoxicity (100 − % cell survival) of BT474 cell line",24.3%
same,cytotoxicity at 0.015 µM,"[2]; Homo sapiens, BT-474, 0.015 μM, read-out: % cytotoxicity (100 − % cell survival) of BT474 cell line",25.1%
same,cytotoxicity at 0.045 µM,"[2]; Homo sapiens, BT-474, 0.045 μM, read-out: % cytotoxicity (100 − % cell survival) of BT474 cell line",25.8%
same,cytotoxicity at 0.13 µM,"[2]; Homo sapiens, BT-474, 0.13 μM, read-out: % cytotoxicity (100 − % cell survival) of BT474 cell line",26.2%
same,cytotoxicity at 0.41 µM,"[2]; Homo sapiens, BT-474, 0.41 μM, read-out: % cytotoxicity (100 − % cell survival) of BT474 cell line",27.1%
same,cytotoxicity at 1.23 µM,"[2]; Homo sapiens, BT-474, 1.23 μM, read-out: % cytotoxicity (100 − % cell survival) of BT474 cell line",28.1%
same,cytotoxicity at 3.7 µM,"[2]; Homo sapiens, BT-474, 3.7 μM, read-out: % cytotoxicity (100 − % cell survival) of BT474 cell line",28.7%
same,cytotoxicity at 11.11 µM,"[2]; Homo sapiens, BT-474, 11.11 μM, read-out: % cytotoxicity (100 − % cell survival) of BT474 cell line",29.3%
same,cytotoxicity at 33.33 µM,"[2]; Homo sapiens, BT-474, 33.33 μM, read-out: % cytotoxicity (100 − % cell survival) of BT474 cell line",30.3%
same,cytotoxicity at 100 µM,"[2]; Homo sapiens, BT-474, 100 μM, read-out: % cytotoxicity (100 − % cell survival) of BT474 cell line",32%
same,cytotoxicity at 0.005 µM,"[3]; Homo sapiens, NCI-H226, 0.005 μM, read-out: % Cytotoxicity (100 − % cell survival) of NCI-H226 cell line",36.3%
same,cytotoxicity at 0.045 µM,"[3]; Homo sapiens, NCI-H226, 0.045 μM, read-out: % Cytotoxicity (100 − % cell survival) of NCI-H226 cell line",38.4%
same,cytotoxicity at 0.13 µM,"[3]; Homo sapiens, NCI-H226, 0.13 μM, read-out: % Cytotoxicity (100 − % cell survival) of NCI-H226 cell line",39.1%
same,cytotoxicity at 0.41 µM,"[3]; Homo sapiens, NCI-H226, 0.41 μM, read-out: % Cytotoxicity (100 − % cell survival) of NCI-H226 cell line",42%
same,cytotoxicity at 1.23 µM,"[3]; Homo sapiens, NCI-H226, 1.23 μM, read-out: % Cytotoxicity (100 − % cell survival) of NCI-H226 cell line",42.7%
same,cytotoxicity at 3.7 µM,"[3]; Homo sapiens, NCI-H226, 3.7 μM, read-out: % Cytotoxicity (100 − % cell survival) of NCI-H226 cell line",43.4%
same,cytotoxicity at 11.11 µM,"[3]; Homo sapiens, NCI-H226, 11.11 μM, read-out: % Cytotoxicity (100 − % cell survival) of NCI-H226 cell line",45.3%
same,cytotoxicity at 33.33 µM,"[3]; Homo sapiens, NCI-H226, 33.33 μM, read-out: % Cytotoxicity (100 − % cell survival) of NCI-H226 cell line",47.1%
same,cytotoxicity at 100 µM,"[3]; Homo sapiens, NCI-H226, 100 μM, read-out: % Cytotoxicity (100 − % cell survival) of NCI-H226 cell line",49.1%
same,"cytotoxicity at 72 h, 0.015 µM",[4],37.3%
same,"cytotoxicity at 72 h, 0.005 µM",[5]; 0.005 μM,35.6%
same,"cytotoxicity at 72 h, 0.015 µM",[5]; 0.015 μM,36.2%
same,"cytotoxicity at 72 h, 0.045 µM",[5]; 0.045 μM,37.9%
same,"cytotoxicity at 72 h, 0.13 µM",[5]; 0.13 μM,39.9%
same,"cytotoxicity at 72 h, 0.41 µM",[5]; 0.41 μM,42.6%
same,"cytotoxicity at 72 h, 1.23 µM",[5]; 1.23 μM,43.1%
same,"cytotoxicity at 72 h, 3.7 µM",[5]; 3.7 μM,44%
same,"cytotoxicity at 72 h, 11.11 µM",[5]; 11.11 μM,45.3%
same,"cytotoxicity at 72 h, 33.33 µM",[5]; 33.33 μM,46.8%
same,"cytotoxicity at 72 h, 100 µM",[5]; 100 μM,48.2%
"N-({5-[(3-Nitrobenzylidene)amino]-1,3,4-thiadiazol-2-yl}sulfonyl)benzamide [Compound 9i]",Aberrant cells (%) ± SEM,[6],22.41 ± 6.18%
same,Chromosome breaks (%) ± SEM,[6],7.33 ± 2.06%
same,"MNC (‰) ± SEM (micronuclei per 1,000 cells)",[6],0.61 ± 0.15 ‰
same,Polar deviations (%) ± SEM,[6],6.57 ± 1.33%
same,Stickiness (%) ± SEM,[6],7.35 ± 2.06%
same,MI (%) ± SEM (mitotic index),"[6]; lower MI = higher activity, negative control 6.22",3.07 ± 0.22%
same,% cytotoxicity (100 − % cell survival) of BT474 cell line,[2]; 0.005 μM,31.52%
same,% cytotoxicity (100 − % cell survival) of BT474 cell line,[2]; 0.015 μM,33.31%
same,% cytotoxicity (100 − % cell survival) of BT474 cell line,[2]; 0.045 μM,34.59%
same,% cytotoxicity (100 − % cell survival) of BT474 cell line,[2]; 0.13 μM,35.42%
same,% cytotoxicity (100 − % cell survival) of BT474 cell line,[2]; 0.41 μM,36.12%
same,% cytotoxicity (100 − % cell survival) of BT474 cell line,[2]; 1.23 μM,36.73%
same,% cytotoxicity (100 − % cell survival) of BT474 cell line,[2]; 3.7 μM,37.56%
same,% cytotoxicity (100 − % cell survival) of BT474 cell line,[2]; 11.11 μM,39.19%
same,% cytotoxicity (100 − % cell survival) of BT474 cell line,[2]; 33.33 μM,40.50%
same,% cytotoxicity (100 − % cell survival) of BT474 cell line,[2]; 100 μM,41.29%
same,% Cytotoxicity (100 − % cell survival) of NCI-H226 cell line,[3]; 0.005 μM,33.61%
same,% Cytotoxicity (100 − % cell survival) of NCI-H226 cell line,[3]; 0.015 μM,33.92%
same,% Cytotoxicity (100 − % cell survival) of NCI-H226 cell line,[3]; 0.045 μM,33.97%
same,% Cytotoxicity (100 − % cell survival) of NCI-H226 cell line,[3]; 0.13 μM,34.14%
same,% Cytotoxicity (100 − % cell survival) of NCI-H226 cell line,[3]; 0.41 μM,34.59%
same,% Cytotoxicity (100 − % cell survival) of NCI-H226 cell line,[3]; 1.23 μM,34.95%
same,% Cytotoxicity (100 − % cell survival) of NCI-H226 cell line,[3]; 3.7 μM,35.27%
same,% Cytotoxicity (100 − % cell survival) of NCI-H226 cell line,[3]; 11.11 μM,36.72%
same,% Cytotoxicity (100 − % cell survival) of NCI-H226 cell line,[3]; 33.33 μM,38.57%
same,% Cytotoxicity (100 − % cell survival) of NCI-H226 cell line,[3]; 100 μM,38.66%
same,% cytotoxicity (100 − % cell survival) of HEK 293 cell line,[7]; 0.005 μM,33.04%
same,% cytotoxicity (100 − % cell survival) of HEK 293 cell line,[7]; 0.015 μM,34.46%
same,% cytotoxicity (100 − % cell survival) of HEK 293 cell line,[7]; 0.045 μM,35.12%
same,% cytotoxicity (100 − % cell survival) of HEK 293 cell line,[7]; 0.13 μM,36.32%
same,% cytotoxicity (100 − % cell survival) of HEK 293 cell line,[7]; 0.41 μM,36.69%
same,% cytotoxicity (100 − % cell survival) of HEK 293 cell line,[7]; 1.23 μM,37.03%
same,% cytotoxicity (100 − % cell survival) of HEK 293 cell line,[7]; 3.7 μM,37.19%
same,% cytotoxicity (100 − % cell survival) of HEK 293 cell line,[7]; 11.11 μM,38.84%
same,% cytotoxicity (100 − % cell survival) of HEK 293 cell line,[7]; 33.33 μM,39.51%
same,% cytotoxicity (100 − % cell survival) of HEK 293 cell line,[7]; 100 μM,43.48%
